The record followed here is patent publication US12662490B2, “Heterocyclic compounds” (Hoffmann-La Roche Inc., priority 2019, dated 2026).

In this assay the target is T1, MAGL (Homo sapiens, UniProt Q99685).
T1 sequence (Q99685 1-303): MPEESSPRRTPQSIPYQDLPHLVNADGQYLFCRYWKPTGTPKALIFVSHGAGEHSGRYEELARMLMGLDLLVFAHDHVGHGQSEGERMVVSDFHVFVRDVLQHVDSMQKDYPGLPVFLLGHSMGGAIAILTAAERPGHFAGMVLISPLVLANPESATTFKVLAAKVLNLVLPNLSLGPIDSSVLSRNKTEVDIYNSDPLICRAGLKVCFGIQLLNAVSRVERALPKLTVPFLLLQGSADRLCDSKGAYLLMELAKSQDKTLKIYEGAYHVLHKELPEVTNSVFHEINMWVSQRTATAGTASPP
Kind of assay: 2-AG assay (MAGL inhibitory activity; hydrolysis of 2-arachidonoylglycerol to arachidonic acid followed by mass spectrometry). Format: biochemical. To be noted: 15 min preincubation at RT, 8 μM 2-arachidonoylglycerol, 30 min at RT, RapidFire MS readout. The essentials: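 Compounds (final 12.5 μM to […], 3-fold steps) preincubated 15 min at RT with MAGL ([…]) in 50 mM TRIS, 1 mM EDTA, Tween buffer. Reaction started with 8 μM 2-arachidonoylglycerol, run 30 min at RT, quenched with ACN containing d8-arachidonic acid. Arachidonic acid quantified by RapidFire SPE-triple quadrupole MS (negative ESI), activity from arachidonic acid/d8 ratio.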
Consider `COc1cccc(C(=O)N2CCN3CC(c4ccc(F)c(-c5ccn(C)c5)c4)OC[C@@H]3C2)c1Cl` (stereo partly drawn) [Example 156, [(9aS)-3-[4-fluoro-3-(1-methylpyrrol-3-yl)phenyl]-3,4,6,7,9,9a-hexahydro-1H-pyrazino[2,1-c][1,4]oxazin-8-yl]-(2-chloro-3-methoxy-phenyl)methanone], for which the midpoint of inhibition, the IC50, lay at 0.815 µM.
As for `COc1cccc(C(=O)N2CCN3C[C@@](O)(c4cc(Br)no4)OC[C@@H]3C2)c1Cl` [Example 157, [(3S,9aS)-3-(3-bromoisoxazol-5-yl)-3-hydroxy-1,4,6,7,9,9a-hexahydropyrazino[2,1-c][1,4]oxazin-8-yl]-(2-chloro-3-methoxy-phenyl)methanone], the figure is 0.849 µM; as for `O=C(c1cccc(-c2c[nH]ncc2=O)c1Cl)N1CCN2C[C@@H](c3ccc(F)c(Cl)c3)OC[C@@H]2C1` [Example 158, 5-[3-[(3R,9aS)-3-(3-chloro-4-fluoro-phenyl)-3,4,6,7,9,9a-hexahydro-1H-pyrazino[2,1-c][1,4]oxazine-8-carbonyl]-2-chloro-phenyl]-1H-pyridazin-4-one], 1.02 µM.
`COc1ccc(F)c(C(=O)N2CCN3C[C@H](c4ccc(F)c(Cl)c4)OC[C@@H]3C2)c1Cl` [Example 159, [(3S,9aS)-3-(3-chloro-4-fluoro-phenyl)-3,4,6,7,9,9a-hexahydro-1H-pyrazino[2,1-c][1,4]oxazin-8-yl]-(2-chloro-6-fluoro-3-methoxy-phenyl)methanone] registered a half-maximal inhibitory concentration (IC50) of 1.48 µM.
For `COc1ccc(-c2nc([C@]3(O)CN4CCN(C(=O)c5cccc(OC)c5Cl)C[C@H]4CO3)cs2)cn1` [Example 160, [(3S,9aS)-3-hydroxy-3-[2-(6-methoxy-3-pyridyl)thiazol-4-yl]-1,4,6,7,9,9a-hexahydropyrazino[2,1-c][1,4]oxazin-8-yl]-(2-chloro-3-methoxy-phenyl)methanone], the IC50 stood at 1.6 µM.

For orientation: IC50 means the point on the concentration scale where inhibition reaches its midpoint. Higher therefore signals a need for much substance.
